ChEMBL document CHEMBL5634181, “Genome Mining Leads to Diverse Sesquiterpenes with Anti-inflammatory Activity from an Arctic-Derived Fungus” (J Nat Prod, 2024)
Each block holds one compound with its values, some of them ahead of it. Calls of active or inactive are those of the source. The rule behind the calls is not given here.

How the values were obtained:
RAW264.7 [1] = assay: Antiproliferative activity against LPS-induced mouse RAW264.7 cells assessed as reduction in cell viability > 40 uM incubated for 24 hrs by CCK-8 assay; assay type: functional, cell-based
RAW264.7 [2] = assay: Anti-inflammatory activity against LPS-Induced mouse RAW264.7 cells assessed as reduction in NO release at 10 uM incubated for 24 hrs; assay type: functional, cell-based
RAW264.7 [3] = assay: Anti-inflammatory activity against LPS-Induced mouse RAW264.7 cells assessed as suppression of p-p38 expression by Western blot analysis; assay type: functional, cell-based; conditions: dose 20-40 µM
Danio rerio [4] = species on record: Danio rerio; assay: (§1) Anti-inflammatory activity against CuSO4-induced transgenic Zebrafish acute inflammation model assessed as zebrafish movement by measuring average velocity at 20 to 40 uM preincubated with CuSO4 for 24 hrs followed by compound addition and measured after 2 hrs by fluorescence microscopic analysis; assay type: functional, organism-based; conditions: dose 20-40 µM
RAW264.7 [5] = assay: Anti-inflammatory activity against LPS-induced mouse RAW264.7 cells reduction in IL-6 mRNA level by RT-qPCR analysis; assay type: functional, cell-based; conditions: dose 20-40 µM
RAW264.7 [6] = assay: Anti-inflammatory activity against LPS-induced mouse RAW264.7 cells reduction in IL-1beta mRNA level by RT-qPCR analysis; assay type: functional, cell-based; conditions: dose 20-40 µM
Danio rerio [7] = species on record: Danio rerio; assay: as §1, with “decrease in migration of inflammatory cells to lateral line” for “zebrafish movement by measuring average velocity”; assay type: functional, organism-based; conditions: dose 20-40 µM
Danio rerio [8] = species on record: Danio rerio; assay: as §1, with “decrease in total distance” for “average velocity”; assay type: functional, organism-based; conditions: dose 20-40 µM
RAW264.7 [9] = assay: Anti-inflammatory activity against LPS-induced mouse RAW264.7 cells reduction in IL-18 mRNA level by RT-qPCR analysis; assay type: functional, cell-based; conditions: dose 20-40 µM
Danio rerio [10] = species on record: Danio rerio; assay: Anti-inflammatory activity against CuSO4-induced transgenic Zebrafish acute inflammation model assessed as decrease in TNF-alpha expression at 20 to 40 uM preincubated with CuSO4 for 24 hrs followed by compound addition and measured after 2 hrs by RT-qPCR analysis; assay type: functional, organism-based; conditions: dose 20-40 µM
RAW264.7 [11] = assay: Cytotoxicity against LPS-induced mouse RAW264.7 cells assessed as effect on cell viability upto to 160 uM incubated for 24 hrs by CCK-8 assay; assay type: toxicity, cell-based; conditions: raw264.7, 24 h
Danio rerio [12] = species on record: Danio rerio; assay: Anti-inflammatory activity against CuSO4-induced transgenic Zebrafish acute inflammation model assessed as decrease in NLRP3 expression at 20 to 40 uM preincubated with CuSO4 for 24 hrs followed by compound addition and measured after 2 hrs by RT-qPCR analysis; assay type: functional, organism-based; conditions: dose 20-40 µM
RAW264.7 [13] = assay: Anti-inflammatory activity against LPS-Induced mouse RAW264.7 cells assessed as suppression of p-JNK expression by Western blot analysis; assay type: functional, cell-based; conditions: dose 20-40 µM
RAW264.7 [14] = assay: Anti-inflammatory activity against LPS-Induced mouse RAW264.7 cells assessed as inhibition rate of NO release at 10 uM incubated for 24 hrs relative to control; assay type: functional
Danio rerio [15] = species on record: Danio rerio; assay: Anti-inflammatory activity against CuSO4-induced transgenic Zebrafish acute inflammation model assessed as decrease in IL-1beta expression at 20 to 40 uM preincubated with CuSO4 for 24 hrs followed by compound addition and measured after 2 hrs by RT-qPCR analysis; assay type: functional, organism-based; conditions: dose 20-40 µM
RAW264.7 [16] = assay: Anti-inflammatory activity against LPS-Induced mouse RAW264.7 cells assessed as suppression of caspase-1 expression at 20 to 40 uM by Western blot analysis; assay type: functional, cell-based; conditions: dose 20-40 µM
RAW264.7 [17] = assay: Anti-inflammatory activity against LPS-Induced mouse RAW264.7 cells assessed as suppression of NLRP3 expression at 20 to 40 uM by Western blot analysis; assay type: functional, cell-based; conditions: dose 20-40 µM
Danio rerio [18] = species on record: Danio rerio; assay: Anti-inflammatory activity against CuSO4-induced transgenic Zebrafish acute inflammation model assessed as decrease in IL-6 expression at 20 to 40 uM preincubated with CuSO4 for 24 hrs followed by compound addition and measured after 2 hrs by RT-qPCR analysis; assay type: functional, organism-based; conditions: dose 20-40 µM
Danio rerio [19] = species on record: Danio rerio; assay: Anti-inflammatory activity against CuSO4-induced transgenic Zebrafish acute inflammation model assessed as decrease in caspase-1 expression at 20 to 40 uM preincubated with CuSO4 for 24 hrs followed by compound addition and measured after 2 hrs by RT-qPCR analysis; assay type: functional, organism-based; conditions: dose 20-40 µM
RAW264.7 [20] = assay: Anti-inflammatory activity against LPS-Induced mouse RAW264.7 cells assessed as suppression of p-ERK expression by Western blot analysis; assay type: functional, cell-based; conditions: dose 20-40 µM
RAW264.7 [21] = assay: Anti-inflammatory activity against LPS-induced mouse RAW264.7 cells reduction in TNF-alpha mRNA level by RT-qPCR analysis; assay type: functional, cell-based; conditions: dose 20-40 µM

Structure (SMILES): CC1=CC[C@@H]2[C@H](O)COC/C(C)=C\[C@@H](O)C[C@]12C
Activity (RAW264.7 [1]): inactive

Structure (SMILES): C=C1C[C@H](O)C[C@]2(C)CC[C@@H](C(C)(C)O)C[C@@H]12
Activity (RAW264.7 [1]): inactive

Structure (SMILES): CC1=CC(=O)[C@H]2C[C@@H]1[C@]2(C)C/C=C/C(C)(C)O
Activity (RAW264.7 [1]): Active

Structure (SMILES): C=C1[C@H](O)CC[C@]2(C)CC[C@@H](C(C)(C)O)C[C@@H]12
Activity (RAW264.7 [1]): inactive

Structure (SMILES): CO[C@]1([C@H](O)[C@@H](O)CC=C(C)C)C=CCC(C)=C1C
Activity (RAW264.7 [1]): inactive

Structure (SMILES): CC1=C2C[C@H](C(C)(C)O)CC[C@@]2(C)CCC1=O
Activity (RAW264.7 [1]): Active

Structure (SMILES): Cc1ccc([C@@](C)(O)C/C=C/C(C)(C)O)cc1
Activity (RAW264.7 [2]): Active
Activity (RAW264.7 [1]): inactive

Structure (SMILES): CC1=CC[C@@H]([C@@](C)(O)C/C(C)=C/[C@H](C)O)[C@@H](O)[C@H]1O
Activity (RAW264.7 [1]): inactive

Structure (SMILES): CC(C)=C[C@H]1C[C@@](C)(O)[C@@H]2[C@@H](CC=C(C)[C@@H]2O)O1
Activity (RAW264.7 [1]): inactive

Structure (SMILES): CC(C)=C[C@H](O)C[C@]1(C)[C@@H]2C[C@H]1C(C)=CC2=O
Activity (RAW264.7 [1]): inactive

Structure (SMILES): CC(C)=CCC[C@](C)(O)[C@@H]1CC=C(C)[C@@H](O)[C@H]1O
Activity (RAW264.7 [1]): inactive

Activity (Danio rerio [19]): Active
Structure (SMILES): CC1=CC[C@@]2(C[C@H]1O)[C@H](C)CC[C@@H]2C(C)CO (stereo partly specified)
Activity (RAW264.7 [3]): Dose-Dependent Effect
Activity (Danio rerio [4]): Active
Activity (RAW264.7 [5]): Dose-Dependent Effect
Activity (RAW264.7 [6]): Dose-Dependent Effect
Activity (RAW264.7 [2]): Active
Activity (Danio rerio [7]): Active
Activity (Danio rerio [8]): Active
Activity (RAW264.7 [9]): Dose-Dependent Effect
Activity (Danio rerio [10]): Active
Activity (RAW264.7 [11]): Non-Toxic
Activity (Danio rerio [12]): Active
Activity (RAW264.7 [13]): Dose-Dependent Effect
inhibition at 10 µM (RAW264.7 [14]): 65%
Activity (Danio rerio [15]): Active
Activity (RAW264.7 [16]): Active
Activity (RAW264.7 [1]): inactive
Activity (RAW264.7 [17]): Active
Activity (Danio rerio [18]): Active
Activity (RAW264.7 [20]): Dose-Dependent Effect
Activity (RAW264.7 [21]): Dose-Dependent Effect

Structure (SMILES): CC(C)=C[C@H]1C[C@@](C)(O)[C@H]2CC=C(C)[C@@H](O)[C@H]2O1
Activity (RAW264.7 [2]): Active
Activity (RAW264.7 [1]): inactive

Structure (SMILES): CC(C)=CCC[C@](C)(O)[C@@H]1CC=C(C)[C@@H](O)C1
Activity (RAW264.7 [2]): Active
Activity (RAW264.7 [1]): inactive

Structure (SMILES): C[C@@H]1C[C@H]2[C@@H]3CCC4=CC(=O)C=C[C@]4(C)[C@@]3(F)[C@@H](O)C[C@]2(C)[C@@]1(O)C(=O)CO [DEXAMETHASONE]
inhibition at 10 µM (RAW264.7 [14]): 72%
Activity (RAW264.7 [1]): inactive

Structure (SMILES): CC1=CC(=O)C[C@@]2(C)CC[C@H](C(C)(C)O)C[C@H]12
Activity (RAW264.7 [2]): Active
Activity (RAW264.7 [1]): inactive
